The values that follow come from article PMC12296705, “In Vivo and Bioinformatics Evaluation of Nine Traditional Chinese Medicine Compounds Targeting Acetylcholinesterase and Butyrylcholinesterase Enzymes in Alzheimer’s Disease” (Iranian Journal of Pharmaceutical Research : IJPR, 2025).

Assay [1] has as its target T1, butyrylcholinesterase (BuChE) (Homo sapiens, UniProt P06276).
T1 construct: purchased MyBiosource, CA, and USA MBS846801
In words: biochemical. How it is done: (§1) The in vitro AChE and BuChE inhibitory effects and selectivity of nine TCM compounds were evaluated using the QuantiChrom^TM AChE inhibitor screening kit (IACE-100, bioassay systems, USA) for AChE inhibition and the BuChE activity kit (catalog # MBS846801, MyBiosource, CA, USA) for BuChE inhibition. […] The QuantiChrom^TM kit was used to assess the activity of AChE and BuChE by recording enzymatic activity at different concentrations of the test compounds and comparing it to activity without inhibitors, followed by plotting dose-response curves. The experimental data were fitted by nonlinear regression analysis to yield IC50 values. The selectivity of the compounds for AChE relative to BuChE was determined by calculating the Selectivity Index (SI) using the formula BuChE IC50 values are divided by AChE IC50 values to obtain SI.

In assay [2] the target is T2, acetylcholinesterase (AChE) (Homo sapiens, UniProt P22303).
T2 construct: purchased bioassay systems, USA IACE-100
In words: biochemical. The conditions noted are these: for IC50: mean ± SD, n = 3, each in triplicate. The procedure: as §1

Assay [3] concerns lead acetate-induced AD (LA-AD) rats. In words: Lipid peroxidation (MDA) in brain tissue of LA-AD rats. It counts as in vivo, rat. The conditions noted are these: 1 mg/kg IP for 15 days, compared to the LA-AD group.
Method: The rats were acclimatized to the laboratory environment for one week prior to the experiment. During this period, they were kept in standard polypropylene cages for rodents under controlled conditions, with a room temperature of 22°C, relative humidity of 50%, and a 12-hour light-dark cycle, with lights on from 06:00 to 18:00. […] Routine monitoring of housing conditions was conducted to ensure compliance with ethical standards. To establish an AD model, the rats underwent intraperitoneal (IP) administration with lead acetate-induced AD (LA-AD, 50 mg/kg) for 15 days to mimic the neurodegenerative features of AD.
Following 28 days of exposure, the rats were euthanized by cervical decapitation, and their brains were removed to minimize tissue damage. The brains were dissected into specific regions, including the cerebellum and cerebral cortex, for deeper analysis. The cerebellum, cerebral cortex, and hippocampus were isolated in sodium chloride solution and washed with ice-cold solution. The tissues were then homogenized, processed for biochemical analysis, and submerged in ice-cold 0.1 M phosphate buffer. […]
The reaction mixtures were then transferred into centrifuge tubes and centrifuged at 3800 × g for 25 minutes. […] After cooling, the absorbance of the samples was measured at 530 nm using a spectrophotometer (BIOBASE BK-UV1800PC, China).
Assay [4] deals with T3, Acetylcholinesterase (AChE) (Rattus norvegicus, UniProt P37136).
T3 construct: The tissues were then homogenized, processed for biochemical analysis; from tissue; host or cells: brain of male Wistar rats (cerebellum, cerebral cortex, hippocampus homogenates)
In words: AChE levels in LA-AD rats. It counts as in vivo. The conditions noted are these: 1 mg/kg IP for 15 days. The procedure: (§2) Fifty male Wistar rats (n = 50) were obtained from a certified animal facility, Shenzhen Bay Laboratory (SZBL) Laboratory Animal Platform, China. The rats were acclimatized to the laboratory environment for one week prior to the experiment. During this period, they were kept in standard polypropylene cages for rodents under controlled conditions, with a room temperature of 22°C, relative humidity of 50%, and a 12-hour light-dark cycle, with lights on from 06:00 to 18:00. The rats had ad libitum access to a standard rodent diet and filtered water to ensure optimal health and hydration. Routine monitoring of housing conditions was conducted to ensure compliance with ethical standards. To establish an AD model, the rats underwent intraperitoneal (IP) administration with lead acetate-induced AD (LA-AD, 50 mg/kg) for 15 days to mimic the neurodegenerative features of AD.
Following AD induction, the rats were randomly divided into five groups: (1) Group I (control): DMSO contained in drinking water at a 5% concentration, without neurotoxic effects, in normal rats; (2) group II (LA-AD): The LA-AD rats for 15 days; […]. […]. […]
(§3) A 12-hour fasting period was imposed on the rats immediately after the final dose of treatment to minimize the effect of recent food intake on blood parameters. […] The toxicological effects of the treatment were assessed through analysis of blood lead concentrations. […]

In assay [5] the target is T4, butyrylcholinesterase (BuChE) (Rattus norvegicus, UniProt Q9JKC1).
T4 construct: The tissues were then homogenized, processed for biochemical analysis; from tissue; host or cells: brain of male Wistar rats (cerebellum, cerebral cortex, hippocampus homogenates)
In words: BuChE levels in LA-AD rats. It counts as in vivo. The conditions noted are these: 1 mg/kg IP for 15 days. How it is done: as §2
Following AD induction, the rats were randomly divided into five groups: (1) Group I (control): DMSO contained in drinking water at a 5% concentration, without neurotoxic effects, in normal rats; (2) group II (LA-AD): The LA-AD rats for 15 days; […]. […]
as §3

Assay [6] concerns lead acetate-induced AD (LA-AD) rats. In words: Glutathione (GSH) content in brain tissue of LA-AD rats. It counts as in vivo, rat. The conditions noted are these: 1 mg/kg IP for 15 days, compared to the LA-AD group.
Method: Fifty male Wistar rats (n = 50) were obtained from a certified animal facility, Shenzhen Bay Laboratory (SZBL) Laboratory Animal Platform, China. The rats were acclimatized to the laboratory environment for one week prior to the experiment. During this period, they were kept in standard polypropylene cages for rodents under controlled conditions, with a room temperature of 22°C, relative humidity of 50%, and a 12-hour light-dark cycle, with lights on from 06:00 to 18:00. […] Routine monitoring of housing conditions was conducted to ensure compliance with ethical standards. To establish an AD model, the rats underwent intraperitoneal (IP) administration with lead acetate-induced AD (LA-AD, 50 mg/kg) for 15 days to mimic the neurodegenerative features of AD.
A 12-hour fasting period was imposed on the rats immediately after the final dose of treatment to minimize the effect of recent food intake on blood parameters. […] Following 28 days of exposure, the rats were euthanized by cervical decapitation, and their brains were removed to minimize tissue damage. The brains were dissected into specific regions, including the cerebellum and cerebral cortex, for deeper analysis. […]
Glutathione (GSH) levels in cerebral tissue were quantified by extracting proteins from the homogenate. […]
The mark [7] stands for this setting: mean ± SD, n = 3, each in triplicate, read-out: IC50 BuChE.
Where [8] appears, read: BuChE IC50 divided by AChE IC50.

Like-named read-outs stand apart in the source and are kept apart here.

T1 sequence (P06276 29-602): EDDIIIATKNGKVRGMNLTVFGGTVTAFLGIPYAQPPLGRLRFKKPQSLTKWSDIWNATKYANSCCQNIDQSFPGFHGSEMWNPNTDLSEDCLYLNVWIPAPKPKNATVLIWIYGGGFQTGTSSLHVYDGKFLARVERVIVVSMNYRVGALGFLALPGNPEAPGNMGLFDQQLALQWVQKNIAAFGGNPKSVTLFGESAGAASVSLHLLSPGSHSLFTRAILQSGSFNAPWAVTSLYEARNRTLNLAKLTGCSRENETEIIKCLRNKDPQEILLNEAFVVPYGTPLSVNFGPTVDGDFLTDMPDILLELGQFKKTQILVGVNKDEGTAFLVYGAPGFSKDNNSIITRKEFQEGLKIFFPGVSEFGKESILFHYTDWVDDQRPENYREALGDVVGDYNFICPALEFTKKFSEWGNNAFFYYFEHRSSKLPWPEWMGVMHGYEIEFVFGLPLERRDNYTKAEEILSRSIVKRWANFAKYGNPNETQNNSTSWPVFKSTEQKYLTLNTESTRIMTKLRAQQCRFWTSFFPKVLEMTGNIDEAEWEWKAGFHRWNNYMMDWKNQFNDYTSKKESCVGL
T2 sequence (P22303 32-614): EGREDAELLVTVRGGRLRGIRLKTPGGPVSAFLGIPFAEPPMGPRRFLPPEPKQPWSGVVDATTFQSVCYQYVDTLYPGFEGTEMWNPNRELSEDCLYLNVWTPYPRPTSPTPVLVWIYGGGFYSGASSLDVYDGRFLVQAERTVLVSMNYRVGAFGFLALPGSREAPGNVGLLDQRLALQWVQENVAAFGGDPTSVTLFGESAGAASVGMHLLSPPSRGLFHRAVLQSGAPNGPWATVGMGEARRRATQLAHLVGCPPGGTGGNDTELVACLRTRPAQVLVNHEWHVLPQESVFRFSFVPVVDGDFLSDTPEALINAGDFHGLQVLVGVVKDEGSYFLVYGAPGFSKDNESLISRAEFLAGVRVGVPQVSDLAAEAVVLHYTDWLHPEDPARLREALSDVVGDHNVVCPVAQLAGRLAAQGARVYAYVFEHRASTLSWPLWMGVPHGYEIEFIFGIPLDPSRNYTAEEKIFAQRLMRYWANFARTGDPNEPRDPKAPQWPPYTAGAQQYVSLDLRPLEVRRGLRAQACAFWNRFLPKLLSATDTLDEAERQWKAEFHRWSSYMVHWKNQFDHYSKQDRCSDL
T4 sequence (Q9JKC1 24-597): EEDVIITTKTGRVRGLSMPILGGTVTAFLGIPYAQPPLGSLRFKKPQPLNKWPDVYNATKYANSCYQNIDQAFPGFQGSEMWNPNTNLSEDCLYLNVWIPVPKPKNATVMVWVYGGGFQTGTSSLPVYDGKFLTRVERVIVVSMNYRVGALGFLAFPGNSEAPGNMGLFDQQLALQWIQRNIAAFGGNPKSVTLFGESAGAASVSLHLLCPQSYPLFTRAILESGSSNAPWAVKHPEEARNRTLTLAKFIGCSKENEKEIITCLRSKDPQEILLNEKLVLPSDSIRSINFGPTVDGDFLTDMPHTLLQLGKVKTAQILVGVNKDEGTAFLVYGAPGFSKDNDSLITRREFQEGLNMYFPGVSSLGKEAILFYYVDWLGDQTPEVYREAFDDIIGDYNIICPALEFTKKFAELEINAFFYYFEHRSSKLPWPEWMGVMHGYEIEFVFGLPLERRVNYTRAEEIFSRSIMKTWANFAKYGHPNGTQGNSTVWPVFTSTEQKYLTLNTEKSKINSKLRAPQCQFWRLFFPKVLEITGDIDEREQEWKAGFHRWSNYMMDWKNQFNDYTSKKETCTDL
T3 sequence (P37136 32-614): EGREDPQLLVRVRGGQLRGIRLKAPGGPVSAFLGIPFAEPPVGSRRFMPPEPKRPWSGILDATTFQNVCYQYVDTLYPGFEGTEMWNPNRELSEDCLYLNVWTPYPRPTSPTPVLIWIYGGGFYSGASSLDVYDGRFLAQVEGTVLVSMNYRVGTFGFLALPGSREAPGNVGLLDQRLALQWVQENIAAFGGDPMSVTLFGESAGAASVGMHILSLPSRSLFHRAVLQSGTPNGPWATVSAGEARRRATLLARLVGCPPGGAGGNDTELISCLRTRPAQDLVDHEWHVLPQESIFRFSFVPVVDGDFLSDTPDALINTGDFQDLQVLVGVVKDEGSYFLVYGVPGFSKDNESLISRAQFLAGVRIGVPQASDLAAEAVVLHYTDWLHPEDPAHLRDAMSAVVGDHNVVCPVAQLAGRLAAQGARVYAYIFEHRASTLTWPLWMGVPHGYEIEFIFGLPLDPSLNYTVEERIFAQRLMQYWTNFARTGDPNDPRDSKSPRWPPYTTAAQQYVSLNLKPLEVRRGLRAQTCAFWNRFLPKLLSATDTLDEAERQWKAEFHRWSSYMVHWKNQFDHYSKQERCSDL

Consider `CC1(C)C=Cc2c(cc3occ(-c4ccc(O)cc4)c(=O)c3c2O)O1` [Alpinumisoflavone], for which the results for the IC50 in assay [1] (setting [7]) and in assay [2] were 29.2 ± 1.4 nM and 90.3 ± 4.13 nM, respectively. The “BuChE/AChE Selectivity” value in assay [2] (setting [8]) is given as 0.32.
Consider `C=C1CCC[C@]2(C)C[C@]3(O)OC(=O)C(C)=C3C[C@@H]12` [Atractylenolide III], for which the figures for the half-maximal inhibitory concentration (IC50) in assay [1] and in assay [2] were 31.3 ± 2.62 nM and 83.1 ± 2.43 nM, respectively. The “BuChE/AChE Selectivity” value in assay [2] came out at 0.38.
On to `Cc1cc(=O)cc2c3c1CC1C4OC(=O)C(CC2)(C(C)C4O)C31` (stereo not shown) [Hainanolidol], for which the values for the IC50 in assay [1] (setting [7]) and in assay [2] were 12.3 nM and 44.3 nM, respectively. In addition, in assay [3], the “Malondialdehyde (MDA) levels” value is listed as “significantly reduced”. Further, the AChE activity entry in assay [4] is “significantly decreased”. In assay [5], the BuChE activity entry is reported as “significantly decreased”. For the same compound, in assay [6], the “Glutathione (GSH) levels” value is “significantly increased”.
For `COC(=O)C1=CO[C@@H](O[C@@H]2O[C@H](CO)[C@@H](O)[C@H](O)[C@H]2O)[C@@H]2[C@H](C)O[C@@H](O)C[C@H]12` [Morroniside], the IC50 in assay [1] (setting [7]) turned out to be 18.2 ± 2.12 nM; in assay [2] it was 41.6 ± 2.02 nM.
In the case of `COc1cc2c3c(c1O)-c1c(ccc(OC)c1OC)C[C@@H]3NCC2` [Norcorydine], the IC50 turned out to be 102 ± 3.13 nM in assay [1] and 87.2 ± 4.12 nM in assay [2].
Regarding `O=c1cc(-c2ccccc2)oc2c(O)c(O)cc(O)c12` [Norwogonin], the IC50 in assay [1] (setting [7]) is 15.2 nM; in assay [2], 33.6 nM. In assay [3], the “Malondialdehyde (MDA) levels” value is given as “significantly reduced”. Also, the AChE activity result in assay [4] is “significantly decreased”. Also, the BuChE activity result in assay [5] is reported as “significantly decreased”. Moreover, the “Glutathione (GSH) levels” value in assay [6] is recorded as “significantly increased”.
Consider `COc1cc2c(c(OC)c1OC)-c1c(cc3c(c1OC)OCO3)CC(C)C(C)C2` (stereo not shown) [Schisandrin B], for which the 50% inhibitory concentration (IC50) in assay [1] was 82.3 ± 1.21 nM; in assay [2], 90.4 ± 4.41 nM.
As to Asiaticoside, the “BuChE/AChE Selectivity” value in assay [2] (setting [8]) was found to be 1.17.

Usually IC50 stands for the concentration needed to halve the response being measured.
